Where a name gives a salt, the structure may show the parent alone. Read-outs that look alike come from different tables or passages of the source. One block for each compound: values may come before it.
What was measured:
[1] = target: T1, BLM-RAD54 interaction (BLM F2 and N-RAD54 F1) (Homo sapiens, UniProt Q92698); experiment: Renilla luciferase-based protein complementation assay (PCA); format: cell-based
T1 construct: expressed in transfected cells; host or cells: HEK293T
T1 sequence (Q92698 1-212): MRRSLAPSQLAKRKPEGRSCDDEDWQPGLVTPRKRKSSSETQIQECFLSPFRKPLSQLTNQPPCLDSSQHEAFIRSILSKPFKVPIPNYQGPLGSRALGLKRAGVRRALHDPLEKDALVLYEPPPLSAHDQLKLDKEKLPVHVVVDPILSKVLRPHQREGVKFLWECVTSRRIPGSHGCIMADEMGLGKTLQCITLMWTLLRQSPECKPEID
Description: Specifically, N-RAD54-F1, C-RAD54-F1, BLM-F1 and BLM-F2 were transfected in HEK293T. Forty-eight hours post-transfection, Renilla luciferase-based PCA were carried out with the indicated combination of the expressed proteins. The experiment was repeated three times. Mean±S.D.
Using the Renilla luciferase-based protein complementation assay described earlier, 1280 FDA/EMA approved small molecules present in Prestwick chemical library were screened for their ability to disrupt BLM-RAD54 interaction. Each of the small molecules was incubated with HEK293T cells expressing BLM-F2 and N-RAD54-F1. Compared to cells expressing only BLM-F2 and N-RAD54-F1, the decrease in Renilla luciferase intensity in presence of each small molecule was monitored. Percentage disruption of the interaction between BLM F2 and N-RAD54 F1 was plotted in form of heatmap. The disruption of the BLM-RAD54 interaction was determined by a decrease in the Renilla luciferase activity as compared to control untreated cells.
The percentage disruption of the interaction between BLM F2 and N-RAD54 F1 was plotted as a non-linear regression line. The data was from three independent experiments.
Renilla Luciferase (Rlu) based Protein complementation assay was carried out as described in (Stefan et al., 2007). For preliminary screening of the Prestwick Chemical Library (containing 1280 FDA/EMA approved small molecules), HEK293T cells were seeded in the 6-well plates a day prior to the transfection. Next day the cells were transfected by 2 μg each of pcDNA3.1 N-RAD54 F1, pcDNA3.1 C-RAD54 F1, pcDNA3.1 BLM F1, pcDNA3.1 BLM F2 plasmids (alone or in different combinations) using Lipofectamine 2000 (according to the manufacturer's protocol). 36 hours post-transfection, approximately […] cells were seeded in a 96-well plate and incubated at 37° C. for 2 hour with or without 10 μM of the 1280 small molecules present in the library. 10 μM of Coenleterazine h was added into each well and Rluc activity was monitored for the first 10 seconds in Varioskan Microplate Reader (Thermo Fisher Scientific). The validation screen was performed with 17 small molecules at 100 μM, 10 μM, 1 μM, 100 nM, 10 nM and 1 nM concentrations. The percentage reduction in the protein-protein interaction was then calculated as compared to the control wells (without any small molecule).

HCT116 IC60 CPTR cells = experiment: MTT assay, CPT gradient with or without disruptor; format: cell-based; details: Homo sapiens, HCT-116, CPT gradient alone, 72 hours, read-out: EC50 (μM), HCT116 WT CPT^R
Description: (§1) The three resistant lines and their wildtype counterpart HCT116 were exposed to a gradient of CPT, CDDP or 1-OHP.
(§2) Concentrations of CPT used: 0.140 nM, 20 nM, 50 nM, 1000 nM. Concentration of 1-OHP: 0.14 μM, 2 μM, 4 μM, 6 μM, 8 μM. Concentrations of CDDP used: 0.140 μM, 2 μM, 5 μM, 10 μM. The percentage of viable cells were determined by MTT assays (FIG. 12A-12C). The data in FIG. 12A and FIG. 12C is from three independent experiments and the data in FIG. 12B is from nine independent experiments. […] The levels of MRP2, MRP3, MRP5, MXR were quantitated from three independent experiments. […] Specifically, HCT116 IC60 CPTR cells were transfected with the HR substrate for 72 hours and the levels of HR was determined (FIG. 6A). The data is from three independent experiments. […] The number of soft agar colonies in each condition were counted. The data is from three independent experiments.
To generate camptothecin and cisplatin resistant cells (named as HCT116 IC60 CPT^R, HCT116 IC60 CDDP^R respectively), HCT116 wild type were seeded in a 10 cm dish to a confluency of 80%. The IC20 concentrations of cisplatin (3.38 μM) and camptothecin (12.6 nM) was added for 2 hours and 6 hours, respectively. […] Resistant index was calculated using the following formula: Resistant index=IC60 of the resistant cells/IC60 of the parental cells. […]

HCT116 WT cells = experiment: MTT assay, chemotherapeutic drug gradient with or without disruptor; format: cell-based
Description: as §1, §2
To generate camptothecin and cisplatin resistant cells (named as HCT116 IC60 CPT^R, HCT116 IC60 CDDP^R respectively), HCT116 wild type were seeded in a 10 cm dish to a confluency of 80%. The IC20 concentrations of cisplatin (3.38 μM) and camptothecin (12.6 nM) was added for 2 hours and 6 hours, respectively. Post treatment, the cells were washed twice with 1×PBS and fresh media was added. After every 48 hours, the media was changed and IC20 concentration of the drugs were added only if the confluency of cells was at least 80%. […] Resistant index was calculated using the following formula: Resistant index=IC60 of the resistant cells/IC60 of the parental cells.
Cells were seeded in a 96-well plate overnight. Next day, the culturing media was replaced with Optimem media, followed by incubation with BLM_CPP or SCM_CPP for 1 hr. The final concentrations of the peptides were 450 nM for cisplatin (CDDP) and 180 nM (for all other drugs). […] Post treatment, the cells were washed with 1×PBS and fresh media was added. After 72 hours, MTT assay was carried out to determine the percentage cell viability of the cells with respect to the untreated cells.

His-RAD54 WT = target: T2, His-RAD54 WT (Homo sapiens, UniProt Q92698); experiment: Tryptophan fluorescence assay; format: binding; details: increasing amount of peptide
T2 construct: made in house; host or cells: E. coli BL-21 DE3
T2 sequence (Q92698 1-747): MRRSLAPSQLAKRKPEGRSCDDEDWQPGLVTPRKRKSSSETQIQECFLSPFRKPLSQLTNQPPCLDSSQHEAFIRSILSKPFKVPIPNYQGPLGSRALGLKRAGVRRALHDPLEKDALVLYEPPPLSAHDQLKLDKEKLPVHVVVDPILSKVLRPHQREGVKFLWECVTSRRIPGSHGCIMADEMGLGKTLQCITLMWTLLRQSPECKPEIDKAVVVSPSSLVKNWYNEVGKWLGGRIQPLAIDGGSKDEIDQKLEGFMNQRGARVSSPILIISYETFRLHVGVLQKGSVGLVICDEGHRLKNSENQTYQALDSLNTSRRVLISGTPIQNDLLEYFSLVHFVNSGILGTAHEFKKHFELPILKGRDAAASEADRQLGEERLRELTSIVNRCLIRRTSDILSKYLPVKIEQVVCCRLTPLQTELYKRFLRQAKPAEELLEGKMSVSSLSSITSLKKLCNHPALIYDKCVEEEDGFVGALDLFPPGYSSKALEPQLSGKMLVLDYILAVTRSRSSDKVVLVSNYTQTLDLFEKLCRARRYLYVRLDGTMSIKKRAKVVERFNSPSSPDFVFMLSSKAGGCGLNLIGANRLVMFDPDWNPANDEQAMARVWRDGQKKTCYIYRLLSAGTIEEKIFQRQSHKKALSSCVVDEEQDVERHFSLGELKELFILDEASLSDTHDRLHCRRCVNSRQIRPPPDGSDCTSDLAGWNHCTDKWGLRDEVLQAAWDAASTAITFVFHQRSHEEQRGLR
Description: To determine how BLM peptide affects ATP binding and hydrolysis, tryptophan fluorescence assays were carried out using full-length recombinant RAD54 in presence of either BLM_peptide or SCM_peptide (FIG. 2H). Tryptophan fluorescence assays were carried out with RAD54 WT alone or RAD54 WT in presence of the indicated concentrations of either BLM_peptide (upper panel) or SCM_peptide (lower panel). The experiment was repeated three times and one representative experiment has been shown.
RAD54 fluorescence was measured in a fluorometer.
Tryptophan fluorescence measurements were performed on a Fluoromax Spectrofluorimeter (Horiba-Jobin Yvon Fluoromax 4). Recombinant His-RAD54 (500 nM) was excited at 280 nm and the emission intensity monitored at regular intervals from 295 nm to at least 450 nm.

[2] = target: T3, RAD54 chromatin remodeling activity (Homo sapiens, UniProt Q92698); experiment: Restriction enzyme accessibility (REA) assay on chromatinized G5E4 array; format: biochemical; details: 180 nM peptide, +ATP
T3 construct: GST RAD54 (1-747) (WT), GST BLM (1-1417) (WT), His RAD54 (1-747) (WT); made in house; host or cells: E. coli BL-21 DE3
T3 sequence (Q92698 1-747): T2 sequence (Q92698 1-747)
Source text: (§3) The data is from three independent experiments.
as §3

RAD54 = target: T4, RAD54 (Homo sapiens, UniProt Q92698); experiment: ATP binding assay; format: biochemical; details: 180 nM peptide
T4 construct: GST RAD54 (1-747) (WT); made in house; host or cells: E. coli BL-21 DE3
T4 sequence (Q92698 1-747): T2 sequence (Q92698 1-747)
Description: The quantitation of the ATP binding assay was carried out using RAD54 WT, RAD54 WT+BLM_peptide, and RAD54 WT+SCM_peptide. The data is from three independent experiments. Mean±S.D.
(§4) The presence of the disruptors also led to a decrease in the ATP binding to RAD54.
A 20 μl reaction was set up with 120 nM of GST-RAD54 and 180 nM of either BLM_peptide or SCM_peptide or BLM (1-212) using 4 μl of 5×ATP binding assay buffer (100 mM Tris-Cl pH 7.5, 50 mM MgCl2, 10 mM MnCl2, 5 mM DTT) and 5 μCi of [γ^32P]dATP. […] Reactions were incubated at 30° C. for 20 minutes and were stopped with 10% TCA and samples were spotted on P81 phosphocellulose paper followed by washing of paper strips with 75 mM orthophosphoric acid. A minimum of 8 washes were given in 20 hrs of 1 hr each including a 12 hr wash. Following this, strips were dehydrated in ethanol for 10 min followed by liquid scintillation counting. Reactions without the substrate were spotted as control and the same process repeated.

[3] = target: T3, RAD54 chromatin remodeling activity; experiment: REA assay on chromatinized MRP2 array; format: biochemical; details: 180 nM peptide, +ATP
Source text: (§5) The data was from three independent experiments.
as §5, §3

RAD54 ATPase activity = target: T5, RAD54 ATPase activity (Homo sapiens, UniProt Q92698); experiment: ATPase assay; format: biochemical; details: peptide gradient 180 nM, 360 nM, 540 nM
T5 construct: made in house; host or cells: E. coli BL-21 DE3
T5 sequence (Q92698 1-747): T2 sequence (Q92698 1-747)
Description: The data is from three independent experiments. Mean±S.D.
as §4
Assay for RAD54 ATPase activity was carried out as per the previously published protocol (Srivastava et al., 2009). His-RAD54 (120 nM) was incubated with the GST-BLM (1-212) or BLM_peptide or SCM_peptide (180 nM). […] 1 μl of the sample was spotted on the polyethyleneimine-coated TLC plate, resolved in 1M Formic Acid and 0.3M LiCl. The products of ATP hydrolysis were then visualized by Phosphoimager scans taken in Typhoon™ laser-scanner platform (Cytiva) and quantitated using the inbuilt software.

[4] = disruption of BLM F2 / N-RAD54 F1 interaction, HEK293T cells, 1 nM to 100 μM, read-out: EC50
[5] = HCT116, used to generate resistant cells

- EC50 [1, 4]: 16.7 ± 1.26 nM
Compound: COc1c2occc2c(OC)c2c(=O)cc(C)oc12 [C9, Khellin]

Compound: CC(C)CC1C(=O)N2CCC[C@H]2[C@]2(O)O[C@](NC(=O)[C@@H]3C=C4c5cccc6[nH]c(Br)c(c56)C[C@H]4N(C)C3)(C(C)C)C(=O)N12 (stereo partly drawn) [C12, Bromocryptine mesylate]
- EC50 [1]: 41.4 ± 4.46 nM

- EC50 [1, 4]: 6.75 ± 3.69 nM
Compound: Cc1cnc(C(=O)NCCc2ccc(S(=O)(=O)NC(=O)NC3CCCCC3)cc2)cn1 [C13, Glipizide]

- EC50 [1, 4]: 8.12 ± 3.89 nM
Compound: CC[C@H]1OC(=O)[C@H](C)[C@@H](O[C@H]2C[C@@](C)(OC)[C@@H](O)[C@H](C)O2)[C@H](C)[C@@H](O[C@@H]2O[C@H](C)C[C@H](N(C)C)[C@H]2O)[C@](C)(O)C[C@@H](C)C(=O)[C@H](C)[C@@H](O)[C@]1(C)O [C15, Erythromycin]

- EC50 [1, 4]: 26.4 ± 2.28 nM
Compound: Oc1c(Cl)cc(Cl)c2cccnc12 [C16, Chloroxine]

Compound: CC[C@@]1(O)C(=O)OCc2c1cc1n(c2=O)Cc2cc3ccccc3nc2-1 [CPT, camptothecin]
- EC50 (HCT116 IC60 CPTR cells): 0.354 ± 0.00561 µM
- IC40 concentration (HCT116 WT cells; [5]): 30.8 nM
- IC60 concentration (HCT116 WT cells; [5]): 92.6 nM
- EC50 (HCT116 WT cells; Homo sapiens, HCT-116, CPT gradient alone, MTT, 72 hours, read-out: EC50 (μM), HCT116 WT): 0.043 ± 0.0037 µM
- IC20 (HCT116 WT cells; Homo sapiens, HCT-116, HCT116 wild type, used to generate resistant cells, read-out: IC20 concentration): 12.6 nM

- binding of ATP to RAD54 (RAD54): enhanced the binding of ATP to RAD54
- ATPase activity of RAD54 (RAD54 ATPase activity): increased the ATPase activity of RAD54
Compound: BLM_peptide: BLM (181-212) peptide, sequence STAQKSKKGKRNFFKAQLYTTNTVKTDLPPPS
- tryptophan fluorescence of RAD54 (His-RAD54 WT): progressively enhanced fluorescence quenching
- chromatin remodeling activity of RAD54, fraction uncut [2]: enhance the chromatin remodeling activity of RAD54, to the same extent as BLM (1-212)
- RAD54 mediated remodeling activity, fraction uncut [3]: enhanced RAD54 mediated remodeling activity on MRP2 substrate

From patent US20240180881A1, “METHODS FOR DECREASING RESISTANCE TO CHEMOTHERAPY” (National Institute of Immunology, priority 2022, published 2024)
